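All cell lines were grown in 96-well plates and treated with compound for 48 hours. GI50 = concentration required for 50% inhibition of growth. TGI is the concentration that stops growth completely.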
How the values were obtained:
Experiment in all cases: NCI anticancer screen, dose series, 48 h
[1] = system: MDA-MB-231 breast
[2] = system: HCT-116 colon
[3] = system: LOX IMVI melanoma
[4] = system: NCI-H522 lung
[5] = system: HOP-62 NSCLC
[6] = system: COLO 205 colon
[7] = system: SF-268 CNS
[8] = system: SR leukemia
[9] = system: OVCAR-5 ovarian
[10] = system: SK-MEL-5 melanoma
[11] = system: K-562 leukemia
[12] = system: OVCAR-8 ovarian
[13] = system: IGROV1 ovarian
[14] = system: MOLT-4 leukemia
[15] = system: SW-620 colon
[16] = system: HT29 colon
[17] = system: M14 melanoma
[18] = system: A549 NSCLC
[19] = system: UACC-257 melanoma
[20] = system: PC-3 prostate
[21] = system: UO-31 renal
[22] = system: NCI/ADR-RES ovarian
[23] = system: 786-0 renal
[24] = system: RXF 393 renal
[25] = system: RPMI-8226 leukemia
[26] = system: SF-295 CNS
[27] = system: TK-10 renal
[28] = system: SF-539 CNS
[29] = system: U251 CNS
[30] = system: T-47D breast
[31] = system: HS 578T breast
[32] = system: HCT-15 colon
[33] = system: HL-60(TB) leukemia
[34] = system: MDA-MB-435
[35] = system: OVCAR-4 ovarian
[36] = system: NCI-H460 lung
[37] = system: DU-145 prostate
[38] = system: NCI-H23 lung
[39] = system: SN12C renal
[40] = system: MALME-3M melanoma
[41] = system: HOP-92 NSCLC
[42] = system: SNB-75 CNS
[43] = system: CCRF-CEM leukemia
[44] = system: OVCAR-3 ovarian
[45] = system: CAKI-1 renal
[46] = system: ACHN renal
[47] = system: SK-OV-3 ovarian
[48] = system: NCI-H226 lung
[49] = system: MCF7 breast
[50] = system: SNB-19 CNS
[51] = system: KM12 colon
[52] = system: HCC-2998 colon
[53] = system: UACC-62 melanoma
[54] = system: MDA-MB-468 breast
[55] = system: SK-MEL-2 melanoma
[56] = system: A498 renal
[57] = system: EKVX NSCLC
[58] = system: BT-549 breast
[59] = system: SK-MEL-28 melanoma

With COC(=O)c1c(C(=O)OC)c2n(c1C)[C@@H]([C@@H](C)[C@H]1CC[C@H]3[C@@H]4CCC5=CC(=O)CC[C@]5(C)[C@H]4CC[C@]13C)SC2 the GI50 [1] was 9.73 µM, the TGI [1] was greater than 100 µM and the GI50 [2] was 3 µM. The TGI [2] was greater than 100 µM, the GI50 [3] was 3.86 µM and the TGI [3] was greater than 100 µM. The GI50 [4] was 2.55 µM, the TGI [4] was 53.8 µM and the GI50 [5] was 24.3 µM. For the same compound, the TGI [5] was greater than 100 µM, the GI50 [6] was 4.94 µM and the TGI [6] was greater than 100 µM. It also gave a GI50 [7] of 6.58 µM, a TGI [7] greater than 100 µM and a GI50 [8] of 3.5 µM. The TGI [8] was greater than 100 µM, the GI50 [9] was 4.67 µM and the TGI [9] was greater than 100 µM. For the same compound, the GI50 [10] was 1.53 µM, the TGI [10] was 3.68 µM and the GI50 [11] was 0.908 µM. It also gave a TGI [11] greater than 100 µM, a GI50 [12] of 3.32 µM and a TGI [12] greater than 100 µM. The GI50 [13] was 18.7 µM, the TGI [13] was greater than 100 µM and the GI50 [14] was 2.02 µM. For the same compound, the TGI [14] was 6.34 µM, the GI50 [15] was 7.25 µM and the TGI [15] was greater than 100 µM. The GI50 [16] was 3.75 µM, the TGI [16] was greater than 100 µM and the GI50 [17] was 4.81 µM. It also gave a TGI [17] greater than 100 µM, a GI50 [18] of 4.29 µM and a TGI [18] greater than 100 µM. The GI50 [19] was 3.22 µM, the TGI [19] was greater than 100 µM and the GI50 [20] was 2.31 µM. It also gave a TGI [20] greater than 100 µM, a GI50 [21] of 2.91 µM and a TGI [21] greater than 100 µM. For the same compound, the GI50 [22] was 3.13 µM, the TGI [22] was greater than 100 µM and the GI50 [23] was 11.3 µM. For the same compound, the TGI [23] was greater than 100 µM, the GI50 [24] was 8.82 µM and the TGI [24] was 52.4 µM. It also gave a GI50 [25] of 1.56 µM, a TGI [25] greater than 100 µM and a GI50 [26] of 2.68 µM. The TGI [26] was 27.9 µM, the GI50 [27] was 6.34 µM and the TGI [27] was greater than 100 µM. The GI50 [28] was 7.07 µM, the TGI [28] was 84.1 µM and the GI50 [29] was 4.56 µM. It also gave a TGI [29] greater than 100 µM, a GI50 [30] of 2.1 µM and a TGI [30] greater than 100 µM. The GI50 [31] was 8.22 µM, the TGI [31] was greater than 100 µM and the GI50 [32] was 3.69 µM. For the same compound, the TGI [32] was greater than 100 µM, the GI50 [33] was 2.34 µM and the TGI [33] was 14 µM. It also gave a GI50 [34] of 3.25 µM, a TGI [34] greater than 100 µM and a GI50 [35] of 3.05 µM. For the same compound, the TGI [35] was greater than 100 µM, the GI50 [36] was 5.25 µM and the TGI [36] was greater than 100 µM. The GI50 [37] was 9.83 µM, the TGI [37] was greater than 100 µM and the GI50 [38] was 3.79 µM. It also gave a TGI [38] greater than 100 µM, a GI50 [39] of 4.06 µM and a TGI [39] greater than 100 µM. For the same compound, the GI50 [40] was 4.44 µM, the TGI [40] was 72.9 µM and the GI50 [41] was 6.99 µM. It also gave a TGI [41] of 54.4 µM, a GI50 [42] of 11.3 µM and a TGI [42] of 49.7 µM. It also gave a GI50 [43] of 3.41 µM, a TGI [43] greater than 100 µM and a GI50 [44] of 5.08 µM. The TGI [44] was greater than 100 µM, the GI50 [45] was 3.93 µM and the TGI [45] was greater than 100 µM. It also gave a GI50 [46] of 3.36 µM, a TGI [46] greater than 100 µM and a GI50 [47] of 29.3 µM. It also gave a TGI [47] greater than 100 µM, a GI50 [48] of 2.58 µM and a TGI [48] of 61.8 µM. For the same compound, the GI50 [49] was 2.6 µM, the TGI [49] was greater than 100 µM and the GI50 [50] was 8.15 µM. The TGI [50] was greater than 100 µM, the GI50 [51] was 4.17 µM and the TGI [51] was greater than 100 µM. The GI50 [52] was 6.47 µM, the TGI [52] was greater than 100 µM and the GI50 [53] was 2.21 µM. The TGI [53] was greater than 100 µM, the GI50 [54] was 1.93 µM and the TGI [54] was 16.6 µM. The GI50 [55] was 4.02 µM, the TGI [55] was greater than 100 µM and the GI50 [56] was 17.1 µM. For the same compound, the TGI [56] was greater than 100 µM, the GI50 [57] was 2.34 µM and the TGI [57] was greater than 100 µM. For the same compound, the GI50 [58] was 1.8 µM, the TGI [58] was 4.99 µM and the GI50 [59] was 4.34 µM. The TGI [59] was greater than 100 µM.
